Entries after “also recorded” stand apart in the source; their conditions may differ. Where two headings read alike, the source gives them in different places.

Series [1] concerns TMPRSS2. The format is cell-based, human.
Series [2] deals with Calu-1 cells.
The test system of series [3] is SARS-CoV-2 (B.1). The series is classed as cell-based.
A short description of series [4]: in vitro. The conditions noted are these: human.
Series [5] concerns HEK293T-ACE2-TMPRSS2 cells.
The test system of series [6] is ACE2. The series is classed as cell-based, human.
Series [7] has as its system Sigma-1 receptor (S1R). Particulars: cited from earlier work.
In series [8] the test system is Zaire Ebola virus (EBOV). The conditions noted are these: cited from earlier work.
For series [9], the system named is SARS-CoV-2 B.1.1.7 (alpha). The series is classed as cell-based.
The test system of series [10] is TMPRSS2. The format is cell-based, human. The source holds these as a separate data set.
For series [11], the system named is ACE2. The series is classed as cell-based, human. The source holds these as a separate data set.
In series [12] the test system is SARS-CoV-2 B.1.351 (beta). The format is cell-based.
In series [13] the test system is SARS-CoV-2 B.1.617.2 (delta). The format is cell-based.
For series [14] the following is noted: samples collected from pilot fatalities ref Johnson et al., 2007; cited from earlier work.
Series [15] has as its system COVID-19. Particulars: COVID-19 patients, treatment for 20 days ref Hoertel, et al., 2021b; cited from earlier work.
In series [16] the test system is COVID-19. Particulars: follow up randomized controlled trial ref Reis et al., 2021; cited from earlier work.
Series [17] has as its system S2R. Particulars: ref Robson et al., 2012; cited from earlier work.
Setting [18] is: ref Narita et al., 1996, Sukhatme et al., 2021.

With `CN(C)CCCN1c2ccccc2Sc2ccc(Cl)cc21` [Chlorpromazine], the “TMPRSS2 mRNA level” value in series [1] is reported as “remained ineffective”. The “viability of infected Calu-1 cells (ATP level)” value in series [2] is “slight but significant reduction in the viability”. Moreover, in [3], the “amount of infectious virus (TCID50 assay)” value is “failed to observe diminished amount of infectious virus” and the “total amount of virus / genome copy number (qRT-PCR)” value is “able to reduce the total amount of virus”. The molecule also gave a CC50 in [4] of 15.9 µM. Further, the “cell viability (ATP level) in non-infected and infected cells” value in [5] is given as “Reduction”. The “ACE2 mRNA level” value in [6] was “induced a reduction of this target”.

`CN(C)CCCC1(c2ccc(F)cc2)OCc2cc(C#N)ccc21` (stereo not shown) [Citalopram]: the “viability of infected Calu-1 cells (ATP level)” value in series [2] is “decreased the cell viability”. Also, in [3], the “genome copies of SARS-CoV-2 (qRT-PCR)” value is “clearly reduced” and the “infectious virus particles (TCID50 assay)” value (shortened to “infectious virus particles”) is reported as “clearly reduced”. For the same molecule, in [4], the CC50 came out at 274 µM. Moreover, the “cell viability (ATP level) in non-infected and infected cells” value in [5] is listed as “Reduction”. The “binding to S1R” value in series [7] (setting [18]) is “bind to S1R”.

In the case of `CN(C)CCCN1c2ccccc2CCc2ccc(Cl)cc21` [Clomipramine], the “TMPRSS2 mRNA level” value in series [1] was “remained ineffective”. Moreover, the “viability of infected Calu-1 cells (ATP level)” value in series [2] is reported as “decreased the cell viability”. Moreover, in [3], the “genome copies of SARS-CoV-2 (qRT-PCR)” value is “clearly reduced” and the “infectious virus particles” value was “clearly reduced”. In series [4], this molecule had a CC50 of 65.7 µM. Besides, the “cell viability (ATP level) in non-infected and infected cells” value in [5] was “Reduction”. For the same molecule, the “Zaire Ebola virus (EBOV) entry to target cells” value (from here on “Zaire Ebola virus (EBOV) entry”) in series [8] is “reduce the Zaire Ebola virus (EBOV) entry”. Moreover, in series [6], the “ACE2 mRNA level” value is reported as “induced a reduction of this target”.

`CNCCCN1c2ccccc2CCc2ccccc21` [Desipramine] had a CC50 in series [4] of 68.9 µM. The “cell viability (ATP level) in non-infected and infected cells” value in series [5] is given as “Reduction”. For the same molecule, the “binding to S1R” value in series [7] (setting [18]) is “bind to S1R”.

`CNCCC(Oc1ccc(C(F)(F)F)cc1)c1ccccc1` (stereo not shown) [Fluoxetine]: in series [9], the “TCID50 (infectious virus)” value is given as “reduced” and the “genome copy number (qRT-PCR)” value is “reduced”. Also, in [10], the TMPRSS2 protein level entry is listed as “significantly increased; also recorded: Despite not being statistically significant, fluoxetine also increased TMPRSS2”. In addition, in series [1], the “TMPRSS2 mRNA level” value is “increased”. Besides, the “viability of infected Calu-1 cells (ATP level)” value in series [2] is recorded as “decreased the cell viability”. Moreover, in series [2] (human), the “Calu-1 viability (ATP levels)” value is given as “slightly reduced the Calu-1 viability”. The ACE2 protein level entry in series [11] is recorded as “does not exert any effect on the ACE2 expression”. Besides, in series [3], the “genome copies of SARS-CoV-2 (qRT-PCR)” value is recorded as “clearly reduced” and the “infectious virus particles” value is “clearly reduced”. Besides, the CC50 in series [4] worked out at 41.5 µM. In [5], the “cell viability (ATP level) in non-infected and infected cells” value is recorded as “Reduction”. For the same molecule, in series [12], the “TCID50 (infectious virus)” value is recorded as “reduced” and the “genome copy number (qRT-PCR)” value is given as “reduced”. Further, in series [13], the “TCID50 (infectious virus)” value is recorded as “reduced” and the “genome copy number (qRT-PCR)” value is “reduced”. The “binding to S1R” value in [7] (setting [18]) is reported as “bind to S1R”. The “mean concentration of fluoxetine in lungs” value in series [14] is 19.6 µg/g. Also, in [15], the “risk of intubation or death by COVID-19” value was “reduce the risk of intubation or death”. Besides, the “ACE2 mRNA level” value in [6] is “remained unaltered”.

For `OCCN1CCN(CCC=C2c3ccccc3Sc3ccc(C(F)(F)F)cc32)CC1` [Flupenthixol], in [4], the CC50 was 19.4 µM. Moreover, the “cell viability (ATP level) in non-infected and infected cells” value in [5] is reported as “Reduction”.

In the case of `COCCCC/C(=N\OCCN)c1ccc(C(F)(F)F)cc1` [Fluvoxamine], in series [16], the “hospitalization risk due to COVID-19” value was “helps with the reduction of hospitalization risk”. Moreover, in series [4], the CC50 amounted to 75.3 µM. Moreover, the “cell viability (ATP level) in non-infected and infected cells” value in series [5] was “Reduction”. Also, in [7] (setting [18]), the “binding to S1R” value is given as “bind to S1R”.

Regarding `CN(C)CCCN1c2ccccc2CCc2ccccc21` [Imipramine], the “viability of infected Calu-1 cells (ATP level)” value in series [2] is listed as “All compounds, except for imipramine, decreased the cell viability”. In addition, in series [3], the “genome copies of SARS-CoV-2 (qRT-PCR)” value was “reducing the genome copies” and the “infectious virus particles” value is “failed to effect the TCID50”. In [4], this molecule came in with a CC50 of 68.6 µM. Further, in [5], the “cell viability (ATP level)” value is “reduced ATP levels”; the “cell viability (ATP level) in non-infected and infected cells” value is given as “Reduction”. Besides, in [7] (setting [18]), the “binding to S1R” value was “bind to S1R”.

Take `CNC1(c2ccccc2Cl)CCCCC1=O` (stereo not shown) [Ketamine]: the “binding to S2R” value in series [17] was “can bind to both S1R and S2R”. Also, the “binding to S1R” value in [7] (ref Robson et al., 2012) is “can bind to both S1R and S2R”.

Take `Fc1ccc([C@@H]2CCNC[C@H]2COc2ccc3c(c2)OCO3)cc1` [Paroxetine]: the CC50 in series [4] amounted to 22.1 µM. Besides, the “cell viability (ATP level) in non-infected and infected cells” value in series [5] was “Reduction”. In addition, in [7] (setting [18]), the “binding to S1R” value is “bind to S1R”. In series [8], the “Zaire Ebola virus (EBOV) entry” value is on record as “reduce the Zaire Ebola virus (EBOV) entry”.

The molecule `O=c1[nH]c2ccccc2n1C1CCN(CCCC(c2ccc(F)cc2)c2ccc(F)cc2)CC1` [Pimozide] came in with a CC50 in series [4] of 15 µM. For the same molecule, in [5], the “cell viability (ATP level) in non-infected and infected cells” value is recorded as “Reduction”.

As to `CCOc1ccccc1OC(c1ccccc1)C1CNCCO1` (stereo not shown) [Reboxetine], in series [3], the “genome copies of SARS-CoV-2 (qRT-PCR)” value was “clearly reduced” and the “infectious virus particles” value is recorded as “clearly reduced”.

In the case of `COc1ccc(C(CN(C)C)C2(O)CCCCC2)cc1` (stereo not shown) [Venlafaxine], the “viability of infected Calu-1 cells (ATP level)” value in series [2] was “decreased the cell viability”. In [3], the “genome copies of SARS-CoV-2 (qRT-PCR)” value is “ineffective” and the “infectious virus particles” value was “ineffective”. In series [5], the CC50 result is given as “No fitting”; the “cell viability (ATP level)” value is “all the compounds, except (E) venlafaxine and (F) reboxetine reduced ATP levels”. Also, in series [7] (ref Ishima et al., 2014), the “affinity to S1R” value was “very weak affinity”. In addition, the “risk of intubation or death by COVID-19” value in series [15] is given as “reduce the risk of intubation or death”.

Take `CN(C)CCC[C@@]1(c2ccc(F)cc2)OCc2cc(C#N)ccc21` [escitalopram]: in series [15], the “risk of intubation or death by COVID-19” value is “reduce the risk of intubation or death”.

Turning to `CN[C@H]1CC[C@@H](c2ccc(Cl)c(Cl)c2)c2ccccc21` [sertraline], the “binding to S1R” value in [7] (setting [18]) is recorded as “bind to S1R”. The “Zaire Ebola virus (EBOV) entry” value in [8] is on record as “reduce the Zaire Ebola virus (EBOV) entry”.

The values are drawn from article PMC8809408 (Frontiers in Pharmacology, 2022).
